Consider three compounds from article PMC10873978, “Novel tetrahydroisoquinolines as DHFR and CDK2 inhibitors: synthesis, characterization, anticancer activity and antioxidant properties” (BMC Chemistry, 2024).

One data set relates to MCF7 cell line. Kind of data set: In vitro cytotoxic activity, MTT method, MCF7. Format: cell-based, human. In short, it runs like this:
(§1)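 MTT assay: cells seeded at 10^5 cells/mL, grown 24 h at 37 °C to a monolayer, then exposed to serial tetrahydroisoquinoline concentrations at 37 °C. MTT (5 mg/mL stock) added for 1–5 h; OD read at 560 nm minus 620 nm background. Doxorubicin as positive control.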

The test system of another data set is A549 cell line. Briefly: In vitro cytotoxic activity, MTT method, A549. The conditions noted are these: Homo sapiens, read-out: IC50 ± SD. An outline of the steps:
as §1
A general note: Tetrazolium assays rely on reduction of a dye to a coloured formazan, in cell work by metabolically active cells.

Data set [1] can be described thus: Cytotoxicity on normal cell line WI-38. The conditions noted are these: human, % viability. In kind it is cell-based, human.
For a further data set, the system named is WI-38 cell line. Briefly: Cytotoxicity on normal cell line WI-38. The conditions noted are these: for IC50: read-out: Toxicity on WI38 IC50 ± SD; for % viability: human. In kind it is cell-based, human.
In the next data set the target is Eef2 kinase (Homo sapiens, UniProt O00418). Briefly: Eef2 kinase inhibition. In kind it is biochemical.
Another data set addresses T1, IKB kinase B (Homo sapiens, UniProt O14920).
T1 sequence (O14920 1-756): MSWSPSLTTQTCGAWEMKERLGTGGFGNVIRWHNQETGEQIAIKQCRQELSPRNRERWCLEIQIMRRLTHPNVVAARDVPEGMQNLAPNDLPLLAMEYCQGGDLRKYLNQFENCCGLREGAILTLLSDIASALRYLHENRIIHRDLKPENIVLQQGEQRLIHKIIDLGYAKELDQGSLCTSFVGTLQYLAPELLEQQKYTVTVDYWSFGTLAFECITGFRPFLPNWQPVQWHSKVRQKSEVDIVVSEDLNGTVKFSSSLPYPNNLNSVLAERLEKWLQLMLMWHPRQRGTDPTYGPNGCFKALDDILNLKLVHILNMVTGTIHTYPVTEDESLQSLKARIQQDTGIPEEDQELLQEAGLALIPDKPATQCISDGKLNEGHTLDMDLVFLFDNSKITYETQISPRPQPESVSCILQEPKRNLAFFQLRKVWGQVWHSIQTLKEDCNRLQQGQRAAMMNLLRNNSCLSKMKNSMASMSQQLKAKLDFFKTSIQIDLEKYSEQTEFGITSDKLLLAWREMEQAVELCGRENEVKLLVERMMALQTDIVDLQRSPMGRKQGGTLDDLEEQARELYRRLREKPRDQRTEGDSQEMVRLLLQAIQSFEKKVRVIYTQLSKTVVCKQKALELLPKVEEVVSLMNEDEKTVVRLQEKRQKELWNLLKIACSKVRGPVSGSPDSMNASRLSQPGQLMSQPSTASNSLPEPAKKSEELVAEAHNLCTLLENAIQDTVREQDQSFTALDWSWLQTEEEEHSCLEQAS
Kind of data set: IKB kinase inhibition. In kind it is biochemical. The conditions noted are these: IκB.

Where “and” joins values, the source holds several entries; their conditions need not be identical. Equal entries are not always repeated. Where two headings read alike, the source gives them in different places.

As a reminder, the IC50 is the concentration that inhibits the measured activity by half. A word on the viability: it is a per cent measure of how many cells are alive, often set against a control. Higher therefore signals less harm to the cells.

On to `COc1cccc2c1C(=O)c1c(O)c3c(c(O)c1C2=O)C[C@@](O)(C(=O)CO)C[C@@H]3O[C@H]1C[C@H](N)[C@H](O)[C@H](C)O1` [Doxorubicin, reference compound], for which the IC50 in the data set with MCF7 cell line (Homo sapiens, MCF7, MCF7 cell line, MTT) turned out to be 0.053 ± 0.002 µM; in the data set on A549 cell line it was 0.218 ± 0.005 µM; in the data set on WI-38 cell line (Homo sapiens, WI-38, normal human fetal lung fibroblast WI-38), 11.4 µM; in the data set with WI-38 cell line (normal human fetal lung fibroblast WI-38), 11.4 ± 0.37 µM. The Toxicity % came out at 48.12% in the data set with MCF7 cell line (MCF7, 0.0487 µMol); 52.667% in the data set on MCF7 cell line (MCF7, 0.0975 µMol); 56.34% in the data set on MCF7 cell line (MCF7, 0.195 µMol); 62.87% with MCF7 cell line (MCF7, 0.391 µMol); 73.56% in the data set with MCF7 cell line (MCF7, 0.781 µMol); 80.23% in the data set on MCF7 cell line (MCF7, 1.562 µMol). Also, the Toxicity % in the data set with MCF7 cell line (MCF7, 3.125 µMol) is given as 90.87%; with MCF7 cell line (MCF7, 6.25 µMol) it was 93.45%; in the data set with MCF7 cell line (MCF7, 12.5 µMol) it was 97.46%; in the data set with MCF7 cell line (MCF7, 25 µMol) it was 98.45%. The Viability % in the data set on MCF7 cell line (MCF7, 0.0487 µMol) came out at 51.88%; in the data set with MCF7 cell line (MCF7, 0.0975 µMol), 47.34%; with MCF7 cell line (MCF7, 0.195 µMol), 43.66%; with MCF7 cell line (MCF7, 0.391 µMol), 37.13%; in the data set on MCF7 cell line (MCF7, 0.781 µMol) it was 26.44%; with MCF7 cell line (MCF7, 1.562 µMol), 19.77%. Moreover, the Viability % in the data set on MCF7 cell line (MCF7, 3.125 µMol) is 9.13%; in the data set with MCF7 cell line (MCF7, 6.25 µMol), 6.55%; in the data set with MCF7 cell line (MCF7, 12.5 µMol), 2.542%; in the data set with MCF7 cell line (MCF7, 25 µMol) it was 1.556%. Besides, the viability at 1.55 µM in data set [1] worked out at 84.1%. The compound further registered a viability at 6.25 µM in data set [1] of 64.5%. This compound came in with a viability at 12.5 µM in data set [1] of 52.4%. The compound further showed a viability at 25 µM in data set [1] of 31.1%. For the same compound, the “Selectivity index (SI)” value in the data set on WI-38 cell line (IC50 in WI-38 / IC50 in A549) is 52 and 52.4. Moreover, the “% viability” value in the data set on WI-38 cell line (1.55 µM) is reported as 84.08%; in the data set on WI-38 cell line (3.25 µM) it was 72.52%; in the data set with WI-38 cell line (12.5 µM), 52.38%; in the data set on WI-38 cell line (25 µM), 31.09%.

Regarding `CCCCCCCCCCCCCCCCn1cc[n+](Cc2ccccc2)c1C.[I-]` [NH125, reference compound], the “%inh” value on Eef2 kinase (Eef2, conc 0.01 (log -2)) was 20.1%; on Eef2 kinase (Eef2, conc 0.1 (log -1)) it was 33.9%; on Eef2 kinase (Eef2, conc 1 (log 0)), 62.7%; on Eef2 kinase (Eef2, conc 10 (log 1)) it was 84.3%; at Eef2 kinase (Eef2, conc 100 (log 2)), 92.6%.

Regarding `NC(=O)Nc1sc(-c2ccc(F)cc2)cc1C(N)=O` [TPCA-1, reference compound], the “%inh” value at IKB kinase B (conc 0.01 (log -2)) came to 32.5%; at IKB kinase B (conc 0.1 (log -1)) it was 53.6%; on IKB kinase B (conc 1 (log 0)) it was 71.3%; at IKB kinase B (conc 10 (log 1)), 88.6%; at IKB kinase B (conc 100 (log 2)), 95.2%.
